Among the data in the CATMoS acute toxicity set (Mansouri et al. 2021) are LD50 values, retold here.

Several values for one entry are separate records, joined by “and”; a condition that tells them apart may be missing. Equal values may be shown once.

A short description of this data set: rat acute oral toxicity. The following applies: in vivo. The text has this:
[…]The data set underlying the modeling effort for this project was initially compiled by NICEATM and U.S. EPA’s CCTE. Briefly, LD50 data were collected from rat acute oral systemic toxicity tests, including limit tests, ranges/confidence intervals, and discrete LD50 values. The full data set included 21,200 LD50 entries for 15,688 substances. […] Data were reviewed to ensure that LD50 values with obvious errors in the extracted data such as unit conversion errors (e.g., comma and decimal separator misplacements) were either fixed or removed. After this review, 16,209 LD50 values remained. Many of the chemicals represented had multiple LD50 entries, requiring that a single representative value per Chemical Abstracts Service Registry Number (CASRN) identifier be defined to facilitate modeling efforts. Based on ATWG feedback and to define the representative LD50 as a protective value while accounting for the distribution across multiple LD50s, the median of the lowest quartile was computed using only discrete LD50 values (omitting limit test data and range and confidence interval data). A detailed summary of the data compilation is available online on the NICEATM webpage dedicated to the collaborative modeling project (NTP 2020).
[…][…] For categorical designations, limit test and range/confidence interval LD50 data were integrated wherever possible. As such, the number of chemicals with end point values/calls varies across the modeling end points (Table 3) based on whether chemicals had representative LD50 values and/or other data. If a chemical had both, the representative value was used to determine categorical calls rather than limit test data. Some data were useable only for certain end points and categories depending on the thresholds. For example, ranges that spanned multiple hazard categories were considered only for the binary (very toxic/nontoxic) end points and omitted from rendering a determination for hazard category assignment.
[…]The final data set comprising 11,992 chemicals was split into training and evaluation sets […], respectively. This process was performed semirandomly by ordering chemicals based on the five end points (categorical and continuous LD50 values) and partitioning every fourth record into the evaluation set accordingly. This approach was taken to ensure an equivalent distribution of the LD50 values and the different hazard categories between the training and the evaluation sets without supervised sampling of the chemicals based on structures (Figure 1A). The sources of the chemical structures were also kept equivalent between the two sets, with chemical structures obtained from DSSTox, being the highest quality, representing over 75% of each set (Figure 1B).

With `CCN(CC)CCNC(=O)c1ccc(N)cc1`, the LD50 stood at 1510 mg/kg. The molecule `CCCCC(CC)COP(Oc1ccccc1)Oc1ccccc1` (stereo not given) gave an LD50 of 3840 mg/kg. In turn, `CCCS` gave an LD50 of 1730 mg/kg. Against the preceding molecule, the LD50 is about 2.2-fold lower. `O=C(O)CF`: the median lethal dose (LD50) stood at 0.1 mg/kg. In the case of `CC1(C)[C@H](C(=O)O[C@H](C#N)c2cccc(Oc3ccccc3)c2)[C@@H]1C(Br)C(Br)(Br)Br` (stereo not given in full), the LD50 was 99 mg/kg.

In turn, `C=CC(C)(CCC=C(C)C)OC(C)=O` (stereo not given) registered an LD50 of 13900 mg/kg.

`Cc1ccccc1C(OCCN(C)C)c1ccccc1` (stereo not given) showed an LD50 of 255 mg/kg. `CCCCCCCCC=CCCCCCCCCN(CCO)CCO` showed an LD50 of 1260 mg/kg. To `O=C(O)C1C2CCC(O2)C1C(=O)O` (stereo not given) belongs 38 mg/kg; to `COc1nn(CSP(=S)(OC)OC)c(=O)s1`, 20 mg/kg. Next, `CC(Oc1cc(Cl)c(Cl)cc1Cl)C(=O)O` (stereo not given): 650 mg/kg; `CCCOCC(C)OCC(C)O` (stereo not given): 1500 mg/kg; `CCOCCOCCO`: 5570 mg/kg. To `CCC[N+](C)(C)CC[N+](C)(C)CCO` belongs 1850 mg/kg; to `CC(C)CN`, 224 mg/kg. The molecule `COC(=O)C(N)Cc1cnc[nH]1` (stereo not given) gave an LD50 of 1370 mg/kg. Next, `NC(=O)c1cccnc1`: 3500 mg/kg; `Cc1ccc([N+](=O)[O-])c(C)c1`: 1690 mg/kg. Next, `ClC(Cl)Br`: 916 mg/kg. `CCOP(=S)(OCC)OC(Cl)C(Cl)(Cl)Cl` (stereo not given) came in with an LD50 of 1.8 mg/kg. This LD50 is about 510-fold lower than that of the molecule before. The molecule `C=CC(=O)OCCO` registered an LD50 of 548 mg/kg. Take `CN(CCCCCC(=O)O)S(=O)(=O)c1ccccc1` (racemic): the LD50 amounted to 3040 mg/kg. `COCC(C)OC(C)=O` (stereo not given) registered an LD50 of 5160 mg/kg. Molecule `CCOCn1c(-c2ccc(Cl)cc2)c(C#N)c(Br)c1C(F)(F)F` returned an LD50 of 560 mg/kg.

The molecule `COP(=S)(OC)Oc1cc(Cl)c(Br)cc1Cl` returned an LD50 of 1600 mg/kg.

On to `CC(C)(C#N)C(C)(C)C#N`, for which the LD50 turned out to be 27 mg/kg. Next, `C=C(C)C(=O)OCc1ccccc1`: 3980 mg/kg; `Oc1ccc(O)cc1`: 302 mg/kg; `O=Cc1ccco1`: 100 mg/kg.

The molecule `CCCC(O)C(CC)CO` (stereo not given) displayed a 50% lethal dose (LD50) of 1400 mg/kg.

Molecule `CN(C)CCCNCCCN` showed an LD50 of 1540 mg/kg. Molecule `C=C(C)[C@@H]1CC=C(C)C(=O)C1` had an LD50 of 4900 mg/kg.

In turn, `ClC1=C(Cl)[C@]2(Cl)[C@@H]3[C@@H]4C[C@@H]([C@H]5O[C@@H]45)[C@@H]3[C@@]1(Cl)C2(Cl)Cl` (single isomer, unassigned) showed an LD50 of 24 mg/kg. With `Cc1cccc(N=C=O)c1`, the LD50 is 2930 mg/kg. `CCCCOCC1CO1` (stereo not given) gave an LD50 of 1660 mg/kg. To `CCCCCC` belongs 25000 mg/kg; to `Cc1ncc2n1-c1ccc(Cl)cc1C(c1ccccc1F)=NC2`, 215 mg/kg.

`CC1(C)CC(O)CC(C)(C)N1[O]` displayed an LD50 of 953 mg/kg.

Regarding `COC(=O)Nc1ccc(Cl)c(Cl)c1`, the LD50 worked out at 522 mg/kg. In turn, `CC#N` displayed an LD50 of 2490 mg/kg. To `CON(C)C(=O)Nc1ccc(Cl)c(Cl)c1` belongs 1150 mg/kg; to `CC(C)c1cccc(C(C)C)c1N=C=Nc1c(C(C)C)cccc1C(C)C`, 200 mg/kg. `OC[C@@H](O)[C@H](O)[C@@H](O)CO`: the LD50 was 14100 mg/kg. To `C=CC(C#N)OC(C)=O` (stereo not given) belongs 31.6 mg/kg. Next, `CCc1nn(C)c(C(=O)NCc2ccc(C(C)(C)C)cc2)c1Cl`: 595 mg/kg; `CCOP(=O)(OCC)OC(=CCl)c1ccc(Cl)cc1Cl`: 9.66 mg/kg.

`N#CCNC(=O)c1cnccc1C(F)(F)F`: the LD50 came out at 884 mg/kg. Compared with the last molecule, the LD50 is about 92-fold higher. With `CCCCCCCCOC(=O)c1cc(O)c(O)c(O)c1`, the LD50 stood at 1960 mg/kg. Molecule `O=[N+]([O-])c1ccc(Cl)cc1O` showed an LD50 of 1000 mg/kg. `NC(N)=S` yielded an LD50 of 20 mg/kg. To `Cc1ccc(C)c(OCCCC(C)(C)C(=O)O)c1` belongs 479 mg/kg; to `Nc1nc[nH]n1`, 1100 mg/kg. To `CCC12COCN1COC2` belongs 3670 mg/kg; to `CC=C1CC2CC1C1C3C=CC(C3)C21` (stereo not given), 666 mg/kg. To `O=Cc1ccc(-c2ccccc2)cc1` belongs 1000 mg/kg; to `COCC(=O)N(c1c(C)cccc1C)C(C)C(=O)OC` (stereo not given), 566 mg/kg.

`CC(C)(C)C(O)(CCc1ccc(Cl)cc1)Cn1cncn1` (stereo not given) displayed a median lethal dose (LD50) of 1700 mg/kg. `CCCCSP(=O)(SCCCC)SCCCC` had an LD50 of 150 mg/kg.

`N#CC(Br)Br`: the LD50 was 245 mg/kg. `CC(C)=CCC/C(C)=C/CO` gave an LD50 of 3600 mg/kg. To `CC(C)OC(=O)Nc1cccc(Cl)c1` belongs 1200 mg/kg. As for `CCCCCCCCCC(=O)O`, the LD50 turned out to be 3320 mg/kg. Compared with the last molecule, the LD50 is about 2.8-fold higher. Consider `CCN(CC)C(=O)c1cccc(C)c1`, for which the LD50 was found to be 1950 mg/kg.

`COP(=O)(OC)C(O)C(Cl)(Cl)Cl` (stereo not given) had an LD50 of 154 mg/kg.

Molecule `CNN` had an LD50 of 32 mg/kg. Next, `O=C(O)CCS`: 63 mg/kg; `CCC(C)Nc1c([N+](=O)[O-])cc(C(C)(C)C)cc1[N+](=O)[O-]` (stereo not given): 1050 mg/kg. Next, `CCCCOCC(C)O` (stereo not given): 2500 mg/kg; `CC1=CC(=O)CC(C)(C)C1`: 1500 mg/kg.

The molecule `C=CCOC(=O)c1ccccc1C(=O)OCC=C` showed an LD50 of 656 mg/kg. To `CCCCCC1CCC(=O)O1` (stereo not given) belongs 6600 mg/kg. Next, `CCCCC(CC)COC(=O)CC(C(=O)OCC(CC)CCCC)S(=O)(=O)O` (stereo not given): 1900 mg/kg; `CCO[Si](CCCSC#N)(OCC)OCC`: 986 mg/kg; `NC=O`: 5580 mg/kg.

As for `C1CCSC1`, the LD50 was 1750 mg/kg. Take `CCNS(=O)(=O)C(F)(F)C(F)(F)C(F)(F)C(F)(F)C(F)(F)C(F)(F)C(F)(F)C(F)(F)F`: the LD50 was determined as 507 mg/kg. Next, `N#Cc1c(Cl)c(Cl)c(Cl)c(C#N)c1Cl`: 242 mg/kg; `O=C1CCC(=O)O1`: 1510 mg/kg. To `Oc1cc(Cl)c(Cl)cc1Cl` belongs 820 mg/kg.

Molecule `O=S(=O)(O)CCCS` had an LD50 of 3720 mg/kg. To `C[Si](C)(Cl)Cl` belongs 595 mg/kg; to `CNP(=O)(OC)Oc1ccc(C(C)(C)C)cc1Cl` (stereo not given), 460 mg/kg.

For the molecule `Clc1ccc(C(Cl)Cl)cc1`, the LD50 came to 1910 mg/kg. Compared with the last molecule, the LD50 is about 4.2-fold higher. To `CNC(=O)Oc1cc(C)cc(C)c1` belongs 245 mg/kg; to `CN(C)C(=O)C(c1ccccc1)c1ccccc1`, 685 mg/kg. Molecule `CC1=NNC(=O)N(/N=C/c2cccnc2)C1` came in with an LD50 of 5690 mg/kg. The molecule `COP(=S)(OC)Oc1ccc([N+](=O)[O-])c(C)c1` registered an LD50 of 250 mg/kg. The molecule `OC[C@@H](O)[C@@H](O)CO` returned an LD50 of 13100 mg/kg. To `CCCNCCC` belongs 300 mg/kg.

For `C[n+]1ccc(-c2cc[n+](C)cc2)cc1`, the LD50 is 97.5 mg/kg and 106 mg/kg. Next, `CC(C)(C)CC(C)(C)N`: 218 mg/kg.

The molecule `OCCOCCOc1ccccc1` yielded an LD50 of 2140 mg/kg. To `C=CCN=C=S` belongs 112 mg/kg. To `COC[C@H](C)N(C(=O)CCl)c1c(C)csc1C` belongs 371 mg/kg; to `CCCC1COC(Cn2cncn2)(c2ccc(Cl)cc2Cl)O1` (stereo not given), 1500 mg/kg; to `C=C(C)C(=O)O`, 1060 mg/kg. Next, `C/C=C\CC1=C(C)[C@@H](OC(=O)[C@@H]2[C@@H](/C=C(\C)C(=O)OC)C2(C)C)CC1=O`: 1030 mg/kg; `O=P(Oc1ccccc1)(Oc1ccccc1)Oc1ccccc1`: 3500 mg/kg; `COc1cc(OC)nc(Oc2cccc(Oc3nc(OC)cc(OC)n3)c2C(=O)O)n1`: 2640 mg/kg.

Regarding `Oc1ccccc1O`, the LD50 is 260 mg/kg. This LD50 is about 10-fold lower than that of the molecule before.

In the case of `CC1CCC(CO)CC1` (stereo not given), the LD50 came out at 707 mg/kg. Next, `C=CCCl`: 284 mg/kg; `CC(Cl)(Cl)C(=O)O`: 6940 mg/kg; `CC(C)(C)c1ccc(CCOc2ncnc3ccccc23)cc1`: 134 mg/kg. To `COP(=S)(OC)Oc1nc(Cl)c(Cl)cc1Cl` belongs 1500 mg/kg; to `Cc1c(Cl)cccc1[N+](=O)[O-]`, 2320 mg/kg; to `C=CC=O`, 11.1 mg/kg. To `CNCCO` belongs 1390 mg/kg; to `Oc1c(Cl)cc(Cl)c(Cl)c1Cc1c(O)c(Cl)cc(Cl)c1Cl`, 56 mg/kg. `O=C1C=CC(=O)N1c1ccccc1` registered an LD50 of 128 mg/kg. On to `CNC(=S)S`, for which the LD50 turned out to be 615 mg/kg. For `C=CC(C)C#N` (stereo not given), the LD50 was determined as 232 mg/kg. This LD50 is about 2.7-fold lower than that of the molecule before. In turn, `C1COCO1` returned an LD50 of 3000 mg/kg. To `CCN(C(=O)N(CC)c1ccccc1)c1ccccc1` belongs 781 mg/kg; to `O=C(OCC1CCC2OC2C1)C1CCC2OC2C1` (stereo not given), 4490 mg/kg. To `CC(C)(C)CCCCCCCCCN` belongs 300 mg/kg; to `COCC(C)O` (stereo not given), 3740 mg/kg. Molecule `ClC(Cl)=C(Cl)C(Cl)=C(Cl)Cl` came in with an LD50 of 82 mg/kg.

In the case of `CCCCOP(=O)(OCCCC)Oc1ccccc1`, the LD50 stood at 2140 mg/kg.

Turning to `CC(=O)C1C(=O)C=C(C)OC1=O` (stereo not given), the LD50 was 500 mg/kg.
